The values below come from PubChem BioAssay AID651738 (Southern Research Specialized Biocontainment Screening …, 2012).

Activity calls are given as the source filed them. No rule for the calls is given here.

The nature of assay [1]: Chikungunya virus CPE inhibition, VEEV inhibitor project, cell-based, set 2 (AID 651738). The conditions noted are these: Chikungunya virus infected cells, CPE inhibition; at 50 µM (top of the series).
Assay [2] has as its system Chikungunya virus infected cells, CPE inhibition. Described as above.

In general, inhibition refers to the relative decrease from the control value, in per cent. Consider `CN1CCN(C)C(=Nc2ccc([N+](=O)[O-])cc2C(=O)Nc2ccccc2F)C1`, for which, in assay [1], the inhibition is 8.6% (inactive).

As for `CN1CCN(C)C(=Nc2ccc([N+](=O)[O-])cc2C(=O)Nc2ccccc2)C1`, in assay [1], the inhibition was -3.1% (inactive). Turning to `COc1ccc(CNc2nc(=O)c3cccnc3s2)cc1`, the inhibition in assay [1] was 0.1% (inactive).

As for `CN1CCN(C)C(=Nc2ccc(C#N)cc2C(=O)Nc2ccccc2)C1`, the inhibition in assay [1] was 3% (inactive). Regarding `COc1ccc(Nc2nc(=O)c3cccnc3s2)cc1`, the inhibition in assay [1] is 11.7% (inactive). In the case of `COc1ccc(NC(=O)c2cc([N+](=O)[O-])ccc2N=C2CN(C)CCN2C)cc1`, in assay [1], the inhibition was 2.2% (inactive).

In the case of `CCN1CCN(Cc2nc3ccc([N+](=O)[O-])cc3c(=O)n2-c2ccccc2F)CC1`, the inhibition in assay [1] is -0.8% (inactive). As to `O=c1c2cc([N+](=O)[O-])ccc2nc(CN2CCCNC2)n1-c1ccccc1`, the inhibition in assay [1] was -0.2% (inactive). Still for that read-out and setting: under `CCN1CCN(Cc2nc3ccc(-c4ccccn4)cc3c(=O)n2-c2ccccc2)CC1` stands 4.3% (inactive). For orientation: IC50 means the point on the concentration scale where inhibition reaches its midpoint. With `CN(c1ccc(OCc2ccccc2)cc1)c1nc(=O)c2cccnc2s1`, the IC50 in assay [2] was 1.72 µM. For `CCN1CCN(C2c3ncccc3C(=O)N2c2ccccc2)CC1` (stereo not drawn), the inhibition in assay [1] was -1.8% (inactive). For the compound `O=c1c2cc(F)c(F)cc2nc(CN2CCNCC2)n1-c1ccccc1`, in assay [1], the inhibition was -1% (inactive). Regarding `O=c1c2cc([N+](=O)[O-])ccc2nc(CN2CCCNCC2)n1-c1ccccc1`, the inhibition in assay [1] is -3.1% (inactive).
